# Measurements from US20130210817A1, “METHODS OF CONTROLLING NEONICOTINOID RESISTANT APHIDS” (SYNGENTA CROP PROTECTION LLC, priority 2010, published 2013).
# Legend:
# [1] = test system: neonicotinoid insecticide susceptible strain 4106A; format: in vivo; conditions: mixed age aphids on chinese cabbage leaf discs, Potter Tower spray, mortality 72 hours after treatment; susceptible strain 4106A (Rothamsted Research)
# Procedure: (§1) The following bioassay methodology was utilized to generate the data included in the table:
# (§2) 5 cm leaf discs were taken from fully expanded chinese cabbage leaves and placed with the underside facing upwards onto water agar in 5 cm Petri dishes. The leaf discs are infested with between 30 and 40 mixed age aphids 24 hours prior to insecticide treatment. The leaf surface is sprayed with the appropriate test solutions in a Burkhard Potter Tower at an approximate water volume of 450 l/ha. Test containers are stored at 21 °C, 60% RH and 16:8 light/dark. Aphids were assessed for mortality 72 hours after treatment.
# [2] = test system: neonicotinoid insecticide resistant aphid strain; format: in vivo; conditions: mixed age aphids on chinese cabbage leaf discs, Potter Tower spray, mortality 72 hours after treatment; resistant strain from peach orchard, Avignon region, 2009
# Procedure: as §1, §2
SMILES,LC50 with 95% confidence limit (ppm) susceptible strain [1],LC50 with 95% confidence limit (ppm) resistant strain [2]
C/C(=N\C#N)N(C)Cc1ccc(Cl)nc1 [acetamiprid],0.55 (0.51-0.59) ppm,49.3 (35.2-72.0) ppm
CN/C(=N/CC1CCOC1)N[N+](=O)[O-] (centres unmarked) [dinotefuran],9.95 (8.21-12.5) ppm,538 (435-696) ppm
N#C/N=C1\SCCN1Cc1ccc(Cl)nc1 [thiacloprid],0.38 (0.34-0.42) ppm,>1000 ppm
CN/C(=N\[N+](=O)[O-])NCc1cnc(Cl)s1 [clothianidin],0.33 (0.28-0.38) ppm,904 (478-3616) ppm
CCN(Cc1ccc(Cl)nc1)/C(=C/[N+](=O)[O-])NC [nitenpyram],1.26 (1.03-1.61) ppm,237 (93.7-3566) ppm
"CC(=O)N1C(=O)N(NCc2cccnc2)Cc2cc(C(F)(C(F)(F)F)C(F)(F)F)ccc21 [pyrifluquinazon, 1-acetyl-1,2,3,4-tetrahydro-3-[(3-pyridylmethyl)amino]-6-[1,2,2,2-tetrafluoro-1-(trifluoromethyl)ethyl]quinazolin-2-one]",0.17 (0.13-0.22) ppm,0.09 (0.06-0.13) ppm
CN1COCN(Cc2cnc(Cl)s2)/C1=N\[N+](=O)[O-] [thiamethoxam],0.35 (0.3-0.41) ppm,148 (128-172) ppm
